Experimental findings from publication PMC5063830, “Design and synthesis of chalcone derivatives as potential non-purine xanthine oxidase inhibitors” (SpringerPlus, 2016) are described below.

For data set [1], the target named is xanthine oxidase (Bos taurus, UniProt P80457). The experiment in a line: Assessment of xanthine oxidase inhibitory activity (spectrophotometric, 290 nm). The class given is biochemical. As to conditions: for IC50: 150 μM xanthine, 70 mM phosphate buffer pH 7.5, 25 °C, mean of four determinations, read-out: XO inhibitory activity IC50. As for the experimental part: The assay mixture consisting of 50 μL of test solution, 35 μL of 70 mM phosphate buffer (pH 7.5), and 30 μL of enzyme solution (0.01 units/mL in 70 mM phosphate buffer, pH 7.5) was prepared immediately before use. […] The reaction was stopped by adding 25 μL of HCl 1 N, and the absorbance at 290 nm was measured with a Shimadzu UV-1800. […] XO inhibitory activity was expressed as the percentage inhibition of XO in the above assay system, calculated as (1 − B/A) × 100, where A and B are the activities of the enzyme without and with the test material. IC50 values were calculated from the mean values of data from four determinations.
Sequence of xanthine oxidase (P80457 2-1332 limits assumed): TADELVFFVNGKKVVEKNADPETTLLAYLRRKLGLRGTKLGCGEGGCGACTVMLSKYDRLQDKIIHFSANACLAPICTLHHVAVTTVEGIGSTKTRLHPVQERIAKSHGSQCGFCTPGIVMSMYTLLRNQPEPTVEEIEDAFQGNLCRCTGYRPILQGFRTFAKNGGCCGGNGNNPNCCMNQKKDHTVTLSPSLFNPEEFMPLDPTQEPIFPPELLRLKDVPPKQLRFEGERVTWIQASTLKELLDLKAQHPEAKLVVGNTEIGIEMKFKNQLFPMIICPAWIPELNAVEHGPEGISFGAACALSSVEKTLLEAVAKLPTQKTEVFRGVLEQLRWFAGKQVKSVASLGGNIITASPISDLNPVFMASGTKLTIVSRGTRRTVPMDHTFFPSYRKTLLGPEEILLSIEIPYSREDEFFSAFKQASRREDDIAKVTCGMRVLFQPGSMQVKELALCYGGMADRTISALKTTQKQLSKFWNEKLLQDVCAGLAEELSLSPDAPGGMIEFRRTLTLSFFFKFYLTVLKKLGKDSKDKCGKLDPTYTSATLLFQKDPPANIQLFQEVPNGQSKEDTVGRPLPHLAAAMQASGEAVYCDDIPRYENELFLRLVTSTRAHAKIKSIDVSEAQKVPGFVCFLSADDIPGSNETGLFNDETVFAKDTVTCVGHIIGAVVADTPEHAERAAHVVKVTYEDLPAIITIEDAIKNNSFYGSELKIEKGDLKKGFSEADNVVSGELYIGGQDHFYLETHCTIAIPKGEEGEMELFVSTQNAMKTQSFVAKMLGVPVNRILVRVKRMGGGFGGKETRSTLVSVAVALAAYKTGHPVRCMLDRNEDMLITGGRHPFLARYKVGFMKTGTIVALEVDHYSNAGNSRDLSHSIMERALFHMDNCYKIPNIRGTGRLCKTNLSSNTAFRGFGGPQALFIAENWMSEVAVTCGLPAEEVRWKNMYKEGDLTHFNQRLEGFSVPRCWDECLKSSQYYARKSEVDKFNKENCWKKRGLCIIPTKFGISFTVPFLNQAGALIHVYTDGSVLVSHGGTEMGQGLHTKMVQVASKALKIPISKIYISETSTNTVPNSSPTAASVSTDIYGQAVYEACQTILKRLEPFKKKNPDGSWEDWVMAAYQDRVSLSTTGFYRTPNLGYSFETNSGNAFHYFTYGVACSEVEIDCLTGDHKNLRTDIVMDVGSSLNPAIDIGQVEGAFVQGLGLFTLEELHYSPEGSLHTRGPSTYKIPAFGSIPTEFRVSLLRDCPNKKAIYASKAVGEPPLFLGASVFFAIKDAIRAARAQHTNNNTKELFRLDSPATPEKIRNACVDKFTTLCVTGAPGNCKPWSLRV

Where only a bound is given, the exact number is not on record here.

For the compound `O=C(/C=C/c1ccc(O)c(O)c1)c1ccccc1` [Compound 3, 3,4-dihydroxychalcone], in data set [1], the IC50 was 40.9 µM.
With `O=C(/C=C/c1ccccc1)c1ccc(O)cc1O` [Compound 4, 2′,4′-dihydroxychalcone], in data set [1], the “XO inhibitory activity (in words)” value is “do not show activity” and the IC50 is > 100 µM.
As for `O=C(/C=C/c1ccc(O)c(O)c1)c1ccc(O)cc1O` [Compound 5, 3,4,2ʹ,4ʹ-tetrahydroxychalcone], the IC50 in data set [1] stood at 4.3 µM.
Still for that read-out and setting: the result for `O=C(/C=C/c1ccc(O)cc1O)c1ccc(O)cc1O` [Compound 6, 2,4,2′,4′-tetrahydroxychalcone] reads 16.3 µM; that for `COc1ccc(/C=C/C(=O)c2ccc(O)cc2O)cc1O` [Compound 8, 3,2ʹ,4ʹ-trihydroxy-4-methoxychalcone], 36.7 µM.
Same read-out and setting: next, `COc1ccc(/C=C/C(=O)c2ccc(O)cc2O)cc1OC` [Compound 9, 2ʹ,4ʹ-dihydroxy-3,4-dimethoxychalcone]: > 100 µM; `COc1ccc(C(=O)/C=C/c2ccc(O)c(O)c2)c(O)c1` [Compound 10, 3,4,2ʹ-trihydroxy-4ʹ-methoxychalcone]: 19.2 µM.
`COc1ccc(C(=O)/C=C/c2ccc(O)c(O)c2)c(OC)c1` [Compound 11, 3,4-dihydroxy-2ʹ,4ʹ-dimethoxychalcone]: the half-maximal inhibitory concentration (IC50) in data set [1] was determined as 2.5 µM.
Turning to `COc1ccc(/C=C/C(=O)c2ccc(O)cc2O)c(O)c1` [Compound 12, 2,2ʹ,4ʹ-trihydroxy-4-methoxychalcone], the IC50 in data set [1] came out at 21.8 µM.
Consider `COc1ccc(C(=O)/C=C/c2ccc(O)c(O)c2)c(O)c1C(=O)/C=C/c1ccc(O)c(O)c1` [Compound 13, 3ʹ-caffeoyl-3,4,2ʹ-trihydroxy-4ʹ-methoxychalcone], for which the melting point was 200 to 201 °C. Moreover, in data set [1], the “XO inhibitory activity (in words)” value is listed as “most potent active” and the IC50 was determined as 2.4 µM.
For `COc1ccc(/C=C/C(=O)c2ccccc2)cc1O` [Compound 14, 3-hydroxy-4-methoxychalcone], the concentration for half-maximal inhibition (IC50) in data set [1] was > 100 µM.
In the case of `COc1ccc(/C=C/C(=O)c2ccccc2)cc1OC` [Compound 15, 3,4-dimethoxychalcone], the half-inhibitory concentration (IC50) in data set [1] is > 100 µM.
Turning to `COc1ccc(C(=O)/C=C/c2ccc(OC)c(OC)c2)c(O)c1` [Compound 16, 2ʹ-hydroxy-3,4,4ʹ-trimethoxychalcone], in data set [1], the IC50 was > 100 µM.
`CC(=O)Oc1ccc(C(=O)/C=C/c2ccc(OC(C)=O)c(OC(C)=O)c2)c(O)c1` [Compound 17, 3,4,4ʹ-triacetoxy-2ʹ-hydroxychalcone] came in with a melting point of 110 to 111 °C. Besides, in data set [1], the IC50 is > 100 µM.
In the case of `O=C(/C=C/c1ccccc1)c1ccccc1` [Compound 18, chalcone], in data set [1], the “XO inhibitory activity (in words)” value is listed as “not displayed xanthine oxidase inhibitory activity” and the concentration for half-maximal inhibition (IC50) was > 100 µM.

The term IC50 denotes the concentration that gives 50% inhibition. Broadly, the melting point is the temperature of the solid-liquid transition.
